Laboratory results taken from US10301203B2, “Chloroperoxidase-catalyzed degradation of pharmaceutical pollutants in wastewater” (THE FLORIDA INTERNATIONAL UNIVERSITY BOARD OF TRUSTEES, priority 2017, dated 2019).
In brackets after ≈: the same amount, converted by molar mass.

What was measured:
[1] = MTT assay, cell viability; assay type: cell-based; details: human, MDA-MB-231 breast cancer cells, read-out: MTT incorporation (cell viability) as percentage of control
Description: After incubation, the medium was removed and formazan crystals were dissolved in detergent reagent following the manufacturer's instructions (ATCC). Optical density for each condition was determined at 570 nm. MTT incorporation was expressed as percentage of the control in the absence of compounds.

[2] = biological target: T1, chloroperoxidase (CPO) (Leptoxyphium fumago, UniProt P04963); experiment: CPO-catalyzed degradation in CPO-H2O2-Cl- system, LC-Q-TOF-MS; assay type: biochemical, Caldariomyces fumago; set-up: The isolation of CPO proposed in this study was a modification of the protocol reported by Morris and Hager (1966); made in house; host or cells: native producer
T1 sequence (P04963 21-319 limits assumed): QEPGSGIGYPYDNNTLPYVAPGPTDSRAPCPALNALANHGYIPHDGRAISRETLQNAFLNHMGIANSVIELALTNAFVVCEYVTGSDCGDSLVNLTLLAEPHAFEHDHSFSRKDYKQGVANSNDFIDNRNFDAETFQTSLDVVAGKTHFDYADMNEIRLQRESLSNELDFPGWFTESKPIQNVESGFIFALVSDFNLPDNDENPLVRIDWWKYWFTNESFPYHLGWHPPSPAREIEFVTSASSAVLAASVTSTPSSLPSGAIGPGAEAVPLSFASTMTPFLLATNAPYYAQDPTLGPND
Description: The mixture was centrifuged at 3,000 g in Centriprep® centrifugal filter unit with a 30,000 Dalton cut-off membrane (EMD Millipore, Billerica, Mass., USA). The yielded product was collected after being centrifuged for 1 min. Ethyl acetate was used to extract the filtrate while shaking vigorously, and the supernatant was evaporated to dryness using nitrogen gas. The dried metabolites were dissolved in H2O/methanol (95:5 v/v) to achieve a final concentration of 1 mg/L (ppm). Each sample was either stored in a freezer at −20° C. or immediately run in the LC-Q-TOF-MS mass spectrometer system.
Chromatographic separation and identification of metabolites was performed using the Agilent 1290 Infinity UPLC system coupled with Agilent 6530 Q-TOF mass spectrometer. The Agilent MassHunter Data Acquisition Software (rev. B0.06.00) was used to control the UPLC and the mass spectrometer. Mass Hunter Qualitative Data Analysis Software (Rev. B.07.00) was used for data mining and identification. An Agilent ZORBAX Eclipse plus C18 Rapid Resolution High Definition (RRHD) column (100 mm×1.8 μm) was applied, with the column temperature set at 30° C. via a thermostatted column compartment (TCC). An infinity 1290 automatic injector was used to inject 1 μL of the sample to the column. […]

[3] = biological target: T1, chloroperoxidase (CPO); experiment: CPO-catalyzed degradation of CBZ, UV-Vis at 285 nm; assay type: biochemical, Caldariomyces fumago; set-up: The isolation of CPO proposed in this study was a modification of the protocol reported by Morris and Hager (1966); made in house; host or cells: native producer; details: 20 mM Cl-, 0.07 mM CBZ, 0.07 mM H2O2, 2.5 nM CPO
Description: A VARIAN UV-Vis spectrophotometer (Cary 200 Bio) was used to collect the UV spectra of the degradation products. The drug solution was scanned by dissolving 0.07 mM CBZ in 100 mM KH2PO4 buffer with 20 mM KCl at pH 2.75. The same solution was monitored after being mixed with 0.35 mM H2O2. UV spectra were recorded after the addition of 5 nM CPO for 1 min., 2.5 min., and 4 min.
The effect of the concentration of chloride was investigated. Degradation was carried out in 100 mM phosphate buffer at pH 3.0 with 0.07 mM CBZ and 0.07 mM H2O2. Concentration of chloride was increased from 0 to 20 mM. 285 nm wavelength was monitored immediately after 2.5 nM CPO was added.
The degradation rate at pH range of 2.0 to 5.0 was investigated to probe the effect of pH on the CPO-catalyzed reaction. The reaction was carried out in 100 mM phosphate buffer with 20 mM KCl, 0.07 mM CBZ, and 0.07 mM H2O2. […] 285 nm wavelength was monitored immediately after the addition of 2.5 nM CPO. The calculated time was 0.2 to 0.4 min.
The degradation rate of CBZ was determined by different concentrations of H2O2, ranging from 0.07 to 0.71 mM, in 100 mM phosphate buffer with 20 mM KCl and 0.07 mM CBZ at pH 3.0. A wavelength of 285 nm was monitored immediately after the addition of 5 nM CPO. The degradation rate was calculated at 0.1 to 0.3 min.
The rate was calculated by monitoring absorbance at 285 nm from 0.1 to 0.2 min. […]

[4] = system: C. pyrenoidosa; experiment: Growth-inhibitory (eco-toxicity) test on freshwater green alga; assay type: cell-based, Chlorella pyrenoidosa; details: Auxenochlorella pyrenoidosa, 72 h; at the end of CPO-catalyzed degradation (product mixture of the named drug)
Description: Freshwater unicellular green alga, C. pyrenoidosa (provided by the Institute of Wuhan Hydrobiology, Chinese Academic of Science), was cultivated in nutrient media of blue green medium (BG11) at 298K and illuminated with cool-white fluorescent lights at a continuous light intensity of 2000 Lx. For cell experiments, C. pyrenoidosa was exposed, during its log growth phase, to the toxicant at five different concentrations (maintain final concentration ranging from 0.01 to 0.36 mg/L) for 3-4 days at 298K. The concentration of the alga was determined by monitoring the change of absorption at 680 nm (Ma et al., 2006). The toxicity tests for each drug concentration were conducted in triplicate.
The growth inhibition rate for each sample was calculated.
However, toxicity evaluation about the products from diclofenac and naproxen are not readily available. Biological assays offer a direct measure to evaluate the magnitude of the potential health risk of chemicals. Therefore, a growth-inhibitory test was carried out using C. Pyrenoidosa.

[5] = biological target: T1, chloroperoxidase (CPO); experiment: CPO-catalyzed degradation of diclofenac and naproxen, HPLC; assay type: biochemical, C. fumago; set-up: CPO was isolated from the growth medium of C. fumago; made in house; host or cells: Caldariomyces fumago growth medium (native producer); details: for CPO concentration for complete degradation: 15 μmol/L drug, 0.1 mmol/L H2O2; for fraction of drug degraded within 1 min / time to complete degradation: optimum reaction condition; for pH of maximum degradation efficiency: pH range 2-6
Description: Enzymatic degradation of both drugs was carried out in 0.1 mol·L-1 phosphate buffer in a centrifugal tube with a total volume of 3.0 mL containing CPO (0.25-0.23 nmol·L-1), 20 mmol·L-1 KCl, and drugs (15 μmol·L^−1) at pH 2˜6 at 298K. The reaction was started by adding H2O2 (0.015-0.3 mmol·L^−1) in the absence of light under magnetic stirring and was continued for 20 min. The supernatant of the reaction mixture was extracted 3 times using ethyl acetate. The combined organic extract was concentrated by rotary evaporation (0.09 MPa, 308K) to remove the solvent. The extracts were then dissolved in acetonitrile and methanol, respectively, for HPLC (LC-20AT, Shimadzu) analysis. The mobile phase consisted of 80:20 (v/v) acetonitrile and water for diclofenac and 90:10 (v/v) methanol and water for naproxen, and the flow rate was 0.5 ml·min^−1. The detector was set at 274 nm and 235 nm for diclofenac and naproxen, respectively. The quantitative analysis of the target compounds was based on the standard curve (correlation coefficients were >0.999). The effect of reaction parameters (pH, concentration of enzyme/H2O2, and reaction time) on degradation efficiency was investigated and optimized.
All experiments were triplicated and data reported were mean values of three independent measurements.

Row | Compound | viability at 24 h, 0.0425 μg/ml [1] [%] | viability at 24 h, 0.85 μg/ml [1] [%] | viability at 24 h, 1.7 μg/ml [1] [%] | degradation efficiency ([2]; 10.59 μM (2.5 mg/L) CBZ, 107.19 μM H2O2, 2.9 nM CPO, 10 min) [%] | optimum pH for degradation [3] | degradation efficiency ([2]; 62.45 μM SMZ, 1.3 nM CPO, H2O2 added stepwise, 30 min) [%] | EC50 [4] [µg/mL] | CPO concentration for complete degradation [5] | fraction of drug degraded within 1 min [5] | time to complete degradation [5] [min] | pH of maximum degradation efficiency [5]
1 | NC(=O)N1c2ccccc2C=Cc2ccccc21 [CBZ, Carbamazepine] | 80 | 60 | 45 | 100 | 3.0 | – | – | – | – | – | –
2 | Cc1cc(C)nc(NS(=O)(=O)c2ccc(N)cc2)n1 [SMZ, Sulfamethazine] | 80 | 50 | 40 | – | – | 100 | – | – | – | – | –
3 | O=C([O-])Cc1ccccc1Nc1c(Cl)cccc1Cl.[Na+] [diclofenac, 2-[(2,6-dichlorophenyl)amino]benzeneacetic acid; sodium salt] | – | – | – | – | – | – | 0.25 | above 5.0 nmol·L^−1 | about 70% | 9 | ~3.2
4 | COc1ccc2cc(C(C)C(=O)O)ccc2c1 (stereo not shown) [naproxen, 2-(6-methoxynaphthalen-2-yl)propionic acid] | – | – | – | – | – | – | 0.33 (≈ 1.43 µM) | > 20.0 nmol/L | ~75% | 7 | ~3.2
